The source of these data is ChEMBL document CHEMBL6177964 (Eur J Med Chem, 2025).

pIC50, pKd: −log10 of the molar value. Active and inactive are the calls of the source. No cut-off for these calls is given here. Residues, ends and D or L forms follow the SMILES beside them.

The target of assay [1] is T1, Angiotensin-converting enzyme (Homo sapiens, UniProt P12821). Description: Binding affinity to ACE (unknown origin) assessed as change in entropy (-TdeltaS) at 800 to 1400 nM by isothermal titration calorimetric analysis. The conditions noted are these: dose 800-1400 nM. (In general: ITC needs no label: the signal is the heat of the interaction.)
Assay [2] deals with T1, Angiotensin-converting enzyme. The experiment in a line: Binding affinity to ACE (unknown origin) assessed as change in entropy (deltaS) at 800 to 1400 nM by isothermal titration calorimetric analysis. To be noted: dose 800-1400 nM.
Assay [3] shares this target. Description: Binding affinity to ACE (unknown origin) measured at 20 mins.
Assay [4] shares this target. Description: Binding affinity to ACE (unknown origin) assessed as change in Gibbs free energy at 800 to 1400 nM by isothermal titration calorimetric analysis. To be noted: dose 800-1400 nM.
The target is the same in assay [5]. The experiment in a line: Inhibition of ACE (unknown origin) preincubated with compound for 5 mins and measured after 60 mins.
For assay [6] the target is unchanged. Description: Binding affinity to ACE (unknown origin) assessed as dissociation constant by isothermal titration calorimetric analysis.
Assay [7] has the same target. The experiment in a line: Binding affinity to ACE (unknown origin) assessed as change in enthalpy at 800 to 1400 nM by isothermal titration calorimetric analysis. To be noted: dose 800-1400 nM.
Assay [8] concerns Rattus norvegicus. Description: Antihypertensive activity in spontaneously hypertensive male rat assessed as reduction in systolic blood pressure at 5 mg/kg, IG measured after 24 hrs by tail-cuff method. It is filed as functional.
For assay [9], the system named is Rattus norvegicus. Description: Antihypertensive activity in spontaneously hypertensive male rat assessed as reduction in diastolic blood pressure at 5 mg/kg, IG measured after 24 hrs by tail-cuff method. It is filed as functional.
Assay [10] has as its target T1, Angiotensin-converting enzyme. Description: Inhibition of ACE (unknown origin).
In assay [11] the test system is Rattus norvegicus. Description: Subacute antihypertensive activity in spontaneously hypertensive male Wistar Kyoto rat assessed as reduction in systolic blood pressure at 2.5 mg/kg administered via gavage for 4 weeks and measured at 22 hrs post dose by tail-artery manometry. The format is functional.
Assay [12] concerns Rattus norvegicus. Description: Antihypertensive activity in spontaneously […] male Wistar Kyoto rat assessed as increase in fecal propionic acid level at 5 mg/kg administered via gavage for 4 weeks and measured at 22 hrs post dose by RP-HPLC analysis relative to control. It is filed as functional.
The species entered for assay [13] is Rattus norvegicus. Description: Prevention of gut microbiota dysbiosis in spontaneously hypertensive male Wistar Kyoto rat model assessed as increase in roseburia abundance. It is filed as functional, organism-based.
The test system of assay [14] is Rattus norvegicus. Description: Effect on spontaneously hypertensive male Wistar Kyoto rat assessed as reduction in serum ACE activity by measuring hippuric acid level at 2.5 mg/kg administered via gavage for 4 weeks by RP-HPLC analysis. The format is functional, organism-based.
The test system of assay [15] is Rattus norvegicus. The experiment in a line: Effect on spontaneously hypertensive male Wistar Kyoto rat assessed as reduction in Ang II level in serum at 2.5 mg/kg administered via gavage for 4 weeks by ELISA. The format is functional, organism-based. (In general: An ELISA detects its analyte on a solid surface through an enzyme-linked reagent.)
Assay [16] is filed under the species Rattus norvegicus. The experiment in a line: Prevention of gut microbiota dysbiosis in spontaneously hypertensive male Wistar Kyoto rat model assessed as increase in bacteroidetes abundance. The format is functional, organism-based.
The subject of assay [17] is Rattus norvegicus. Description: Antihypertensive activity in spontaneously […] male Wistar Kyoto rat assessed as increase in fecal butyric acid level at 5 mg/kg administered via gavage for 4 weeks and measured at 22 hrs post dose by RP-HPLC analysis relative to control. The format is functional.
For assay [18], the species on record is Rattus norvegicus. Description: Prevention of gut microbiota dysbiosis in spontaneously hypertensive male Wistar Kyoto rat model assessed as decrease in epsilonbacteraeota abundance. The format is functional, organism-based.
Assay [19] deals with Rattus norvegicus. Description: Acute antihypertensive activity in spontaneously hypertensive male Wistar Kyoto rat assessed as reduction in diastolic blood pressure at 5 mg/kg administered via gavage measured after 2 hrs by tail-artery manometry. It is filed as functional.
The subject of assay [20] is Rattus norvegicus. Description: Subacute antihypertensive activity in spontaneously hypertensive male Wistar Kyoto rat assessed as reduction in diastolic blood pressure at 2.5 mg/kg administered via gavage for 4 weeks and measured at 22 hrs post dose by tail-artery manometry. The format is functional.
Assay [21] relates to Rattus norvegicus. Description: Acute antihypertensive activity in spontaneously hypertensive male Wistar Kyoto rat assessed as reduction in systolic blood pressure at 5 mg/kg administered via gavage measured after 2 hrs by tail-artery manometry. The format is functional.
The target of assay [22] is T1, Angiotensin-converting enzyme. The experiment in a line: Binding affinity to ACE (unknown origin) measured within 14 mins.
For assay [23], the species on record is Rattus norvegicus. The experiment in a line: Prevention of gut microbiota dysbiosis in spontaneously hypertensive male Wistar Kyoto rat model assessed as increase in enterobacteriaceae abundance relative to control. It is filed as functional.
The test system of assay [24] is Rattus norvegicus. Description: Antihypertensive activity in spontaneously […] male Wistar Kyoto rat assessed as increase in fecal acetic acid level at 5 mg/kg administered via gavage for 4 weeks and measured at 22 hrs post dose by RP-HPLC analysis relative to control. It is filed as functional.

T1 sequence (P12821 whole entry): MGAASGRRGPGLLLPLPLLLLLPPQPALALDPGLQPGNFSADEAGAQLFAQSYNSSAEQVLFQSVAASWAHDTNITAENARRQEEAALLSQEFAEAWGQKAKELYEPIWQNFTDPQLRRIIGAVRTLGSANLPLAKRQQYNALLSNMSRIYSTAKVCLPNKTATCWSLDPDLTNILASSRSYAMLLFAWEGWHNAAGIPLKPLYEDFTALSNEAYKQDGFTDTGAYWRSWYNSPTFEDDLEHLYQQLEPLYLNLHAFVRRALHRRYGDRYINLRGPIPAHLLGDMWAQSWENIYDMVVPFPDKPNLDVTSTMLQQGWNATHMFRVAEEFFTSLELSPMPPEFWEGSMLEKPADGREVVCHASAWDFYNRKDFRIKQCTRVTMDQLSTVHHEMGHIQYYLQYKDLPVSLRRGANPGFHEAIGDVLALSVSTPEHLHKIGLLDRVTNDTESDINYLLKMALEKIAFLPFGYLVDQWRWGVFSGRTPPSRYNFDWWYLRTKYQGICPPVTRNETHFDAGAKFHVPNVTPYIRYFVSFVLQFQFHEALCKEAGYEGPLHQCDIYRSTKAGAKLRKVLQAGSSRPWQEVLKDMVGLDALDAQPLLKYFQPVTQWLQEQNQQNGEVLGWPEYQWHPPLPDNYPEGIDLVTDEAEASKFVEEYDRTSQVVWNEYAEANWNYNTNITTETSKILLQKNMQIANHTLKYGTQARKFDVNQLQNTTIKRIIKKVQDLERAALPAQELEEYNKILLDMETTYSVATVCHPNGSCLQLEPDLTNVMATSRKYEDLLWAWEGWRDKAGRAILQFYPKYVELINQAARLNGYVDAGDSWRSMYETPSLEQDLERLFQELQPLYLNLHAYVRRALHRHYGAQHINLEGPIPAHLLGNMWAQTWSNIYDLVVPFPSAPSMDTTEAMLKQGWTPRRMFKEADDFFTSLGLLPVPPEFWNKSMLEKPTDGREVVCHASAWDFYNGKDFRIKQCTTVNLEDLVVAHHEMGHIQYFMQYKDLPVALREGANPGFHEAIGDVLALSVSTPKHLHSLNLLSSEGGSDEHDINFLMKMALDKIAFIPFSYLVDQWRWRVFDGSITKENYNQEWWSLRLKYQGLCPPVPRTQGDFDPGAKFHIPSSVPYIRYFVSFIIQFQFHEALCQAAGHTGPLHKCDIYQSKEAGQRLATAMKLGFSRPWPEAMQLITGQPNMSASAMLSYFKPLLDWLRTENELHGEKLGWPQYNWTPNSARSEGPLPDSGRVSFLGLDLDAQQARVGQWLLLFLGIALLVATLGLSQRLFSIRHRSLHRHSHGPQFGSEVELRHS

As usually defined, the pIC50 is the IC50 on a negative log10 scale, so that one unit is a factor of ten. For orientation: pKd means the negative decadic logarithm of the Kd, by convention in mol/L. On to `C[C@H](NC(=O)[C@@H](N)CCCCN)C(=O)N[C@@H](CCCCN)C(=O)N1CCC[C@H]1C(=O)O` (H-KAKP-OH), for which the -TdeltaS in assay [1] is -7.51 kcal/mol. Also, the deltaS in assay [2] was determined as 25.2 cal/mol.K. Also, the outcome in assay [3] was Active. In assay [4], the deltaG was -9.35 kcal/mol. For the same compound, in [5], the negative-log IC50 (pIC50) is 5.14. Besides, in [6], the pKd is 6.85. For the same compound, the deltaH in [7] is -1.84 kcal/mol.
In the case of `C[C@H](NC(=O)[C@@H](N)CCCCN)C(=O)N1CCC[C@H]1C(=O)N[C@@H](CCCCN)C(=O)O` (H-KAPK-OH), the pIC50 in assay [5] was 2.84.
Same read-out and setting: the result for `CC(C)[C@H](NC(=O)[C@H](CCCCN)NC(=O)[C@H](C)NC(=O)[C@@H](N)CCCCN)C(=O)O` (H-KAKV-OH) reads 2.53.
With `CC(C)C[C@H](NC(=O)[C@H](CO)NC(=O)[C@@H](NC(=O)CNC(=O)CNC(=O)[C@H](Cc1ccc(O)cc1)NC(=O)CNC(=O)[C@@H](N)CCCCN)C(C)C)C(=O)N1CCC[C@H]1C(=O)N[C@@H](CCC(=O)O)C(=O)N[C@@H](Cc1c[nH]c2ccccc12)C(=O)O` (H-KGYGGVSLPEW-OH), the results for the Activity in [8] and in assay [9] were 20 mmHg and 27 mmHg, respectively.
With `C[C@H](NC(=O)[C@@H](N)CCCCN)C(=O)N[C@@H](CCCCN)C(=O)N[C@@H](Cc1ccccc1)C(=O)O` (H-KAKF-OH), in assay [5], the pIC50 was 4.90.
Same read-out and setting: the result for `CSCC[C@H](NC(=O)[C@H](CCCCN)NC(=O)[C@H](C)NC(=O)[C@@H](N)CCCCN)C(=O)O` (H-KAKM-OH) reads 3.10.
In turn, `CC(C)C[C@H](NC(=O)[C@H](Cc1c[nH]c2ccccc12)NC(=O)[C@H](CCCCN)NC(=O)[C@H](Cc1ccccc1)NC(=O)[C@@H]1CCCN1C(=O)[C@H](CC(N)=O)NC(=O)[C@@H](NC(=O)[C@@H](NC(=O)[C@@H](N)C(C)C)[C@@H](C)O)C(C)C)C(=O)N1CCC[C@H]1C(=O)O` (H-VTVNPFKWLP-OH) showed a pIC50 in assay [10] of 5.26.
As to `NCC(=O)N[C@@H](CCC(=O)O)C(=O)N1CCC[C@H]1C(=O)N[C@@H](Cc1ccccc1)C(=O)O` (H-GEPF-OH), the pIC50 in [5] was 4.44.
With `NCCCC[C@H](N[C@@H](CCc1ccccc1)C(=O)O)C(=O)N1CCC[C@H]1C(=O)O` [LISINOPRIL ANHYDROUS], the Activity in assay [11] was determined as 39 mmHg; in [19] it was 28 mmHg; in [20], 32 mmHg; in assay [21], 33 mmHg; in [23], 76%. The result in assay [12], in assay [13], in assay [17] and in assay [24] was inactive. For the same compound, the -TdeltaS in assay [1] is -7.21 kcal/mol. Further, the result in [14], in assay [15], in [16], in [18] and in assay [22] was Active. The deltaS in assay [2] is 24.2 cal/mol.K. Besides, in assay [7], the deltaH was -3.21 kcal/mol.
